The record followed here is US8633322B2, “Alkynyl derivatives useful as DPP-1 inhibitors” (Janssen Pharmaceutica NV, priority 2009, dated 2014).

T1 sequence (P53634 25-463): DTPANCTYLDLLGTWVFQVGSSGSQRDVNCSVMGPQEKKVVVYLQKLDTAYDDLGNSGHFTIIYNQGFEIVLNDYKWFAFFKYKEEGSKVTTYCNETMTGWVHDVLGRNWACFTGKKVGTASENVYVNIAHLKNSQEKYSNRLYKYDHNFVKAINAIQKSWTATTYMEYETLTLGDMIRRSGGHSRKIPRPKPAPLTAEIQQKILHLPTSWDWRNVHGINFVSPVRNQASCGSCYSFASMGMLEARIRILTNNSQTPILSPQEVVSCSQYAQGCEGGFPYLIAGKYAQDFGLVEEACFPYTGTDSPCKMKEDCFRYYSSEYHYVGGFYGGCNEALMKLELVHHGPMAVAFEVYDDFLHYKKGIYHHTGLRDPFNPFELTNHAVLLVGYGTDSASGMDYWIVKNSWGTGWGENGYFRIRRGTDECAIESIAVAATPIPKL

The assay concerns the target T1, recombinant human DPP-1 (Cathepsin C) (Homo sapiens, UniProt P53634).
T1 construct: made in house
The assay is described as follows: DPP-1 Inhibition Assay (In Vitro), fluorogenic substrate GR-AMC. It counts as biochemical. Particulars: room temperature; 0.15 nM DPP-1, 10 uM GR-AMC, pH 7.0; average where tested multiple times. The method, then:
Test compounds were assessed for DPP-1 (Cathepsin C) inhibitory activity using a fluorogenic substrate, GR-AMC (Glycine-Arginine-amino-4-methylcoumarin, Bachem, 1-1215). The amount of amino-methylcoumarin released is proportional to the DPP-1 activity, and the reaction is monitored kinetically with a Molecular Devices plate reader using black 96-well plates.
All compounds were tested under room temperature conditions. The assay buffer consisted of 50 mM HEPES, pH 7.0, 100 mM NaCl, 2 mM glutathione (GSH), and 0.002% TWEEN 20. GSH and TWEEN 20 were added to the buffer fresh daily. Just prior to use, an in-house preparation of recombinant human DPP-1 (240 μM stock, MW 49.6 kD) was diluted 600-fold in assay buffer containing fresh 2 mM dithiothreitol (DTT) to activate the enzyme, then diluted into assay buffer (without DTT) 133-fold for a DPP-1 working solution of 3 nM. Test compounds were diluted in DMSO for 20× their final assay concentrations.
Additions to a 96-well black Costar 3915 plates were as follows: 90 μL of 11 μM GR-AMC, 5 μL test compound (followed by mixing), and 5 μL 3 nM DPP1 to start the reaction. Fluorescent reactions were monitored kinetically at 360 nm excitation, 440 nm emission on a Molecular Devices Spectramax XPS reader. The Softmax Pro software of the reader determined the initial velocity of the selected data (the first 3-5 minutes of the reaction), and the best linear regression fit of the initial kinetic data. Final assay conditions were 0.15 nM DPP-1, 10 uM GR-AMC, 50 mM HEPES, pH 7.0, 100 mM NaCl, 2 mM GSH, 0.002% TWEEN 20, 1 uM DTT, 5.0% DMSO. Initial velocity rates were plotted vs. test compound concentration by use of a four-parameter logistics equation (nonlinear regression, sigmoidal dose-response (variable slope), with fixed Hill (1.0) using GraphPad Prism® software for determination of DPP-1 IC50. Within-run assay coefficient of variation (CV) was generally <10%; between-run CV <20%.
Representative compounds of the present invention were tested according to the procedure as described above, with results as listed in Table 2, below. Additionally, Table 2 below lists the measured mass for said representative compounds of the present invention, more particularly the mass of the MH^+ ion.
What is called IC50 is the concentration needed to halve the response being measured. As for `N[C@@H](Cc1ccccc1)C(=O)NCCCC#Cc1cccc(OC2CCNCC2)c1` [Compound 1], the IC50 was determined as 15.3 µM.
With `C#CC[C@H](N)C(=O)NCCCC#Cc1cccc(OC2CCNCC2)c1` [Compound 3, (S)-2-amino-N-(5-(3-(piperidin-4-yloxy)phenyl)pent-4-ynyl)pent-4-ynamide] the figure was 0.39 µM; with `C#CC[C@H](N)C(=O)NCCC#Cc1cccc(OC2CCNCC2)c1` [Compound 6, (S)-2-amino-N-(4-(3-(piperidin-4-yloxy)phenyl)but-3-ynyl)pent-4-ynamide], 2.43 µM.
With `C#CC[C@H](N)C(=O)NCCCC#Cc1cc(OC)cc(OC2CCNCC2)c1` [Compound 7, (S)-2-amino-N-(5-(3-methoxy-5-(piperidin-4-yloxy)phenyl)pent-4-ynyl)pent-4-ynamide] the figure was 1.6 µM.
With `C=CCC[C@H](N)C(=O)NCCCC#Cc1cccc(OC2CCNCC2)c1` [Compound 8] the figure was 1.64 µM; with `CC[C@H](N)C(=O)NCCCC#Cc1cccc(OC2CCNCC2)c1` [Compound 9], 1.37 µM; with `N[C@@H](CC1CC1)C(=O)NCCCC#Cc1cccc(OC2CCNCC2)c1` [Compound 11], 15.3 µM.
On to `CCCC[C@H](N)C(=O)NCCCC#Cc1cccc(OC2CCNCC2)c1` [Compound 12], for which the IC50 came to 5.92 µM.
Regarding `NCCC[C@H](N)C(=O)NCCCC#Cc1cccc(OC2CCNCC2)c1` [Compound 13], the IC50 came out at 98 µM.
With `N[C@@H](CCO)C(=O)NCCCC#Cc1cccc(OC2CCNCC2)c1` [Compound 15, (S)-2-amino-4-hydroxy-N-(5-(3-(piperidin-4-yloxy)phenyl)pent-4-ynyl)butanamide] the figure was 2.5 µM.
Consider `CC(C)[C@H](N)C(=O)NCCCC#Cc1cccc(OC2CCNCC2)c1` [Compound 16, (S)-2-amino-3-methyl-N-(5-(3-(piperidin-4-yloxy)phenyl)pent-4-ynyl)butanamide], for which the IC50 is 12.8 µM.
With `CCC[C@H](N)C(=O)NCCCC#Cc1cccc(OC2CCNCC2)c1` [Compound 18, (S)-2-amino-N-(5-(3-(piperidin-4-yloxy)phenyl)pent-4-ynyl)pentanamide] the figure was 1.7 µM; with `N[C@@H](Cn1cccn1)C(=O)NCCCC#Cc1cccc(OC2CCNCC2)c1` [Compound 19, (S)-2-amino-N-(5-(3-(piperidin-4-yloxy)phenyl)pent-4-ynyl)-3-(1H-pyrazol-1-yl)propanamide], 9.1 µM; with `N[C@@H](Cc1c[nH]cn1)C(=O)NCCCC#Cc1cccc(OC2CCNCC2)c1` [Compound 20], 0.52 µM.
With `C#CC[C@H](N)C(=O)NCCCC#Cc1cccc(-c2ccccc2)c1` [Compound 24] the figure was 0.4 µM; with `CC(C)C[C@H](N)C(=O)NCCCC#Cc1cccc(OC2CCNCC2)c1` [Compound 31], 30 µM; with `N[C@@H](Cc1cccnc1)C(=O)NCCCC#Cc1cccc(OC2CCNCC2)c1` [Compound 33], 15 µM.
Take `CC[C@H](N)C(=O)NCCCC#Cc1cccc(OC)c1` [Compound 35]: the IC50 was determined as 5.8 µM.
With `CC[C@H](N)C(=O)NCCCC#Cc1ccc(F)c(F)c1` [Compound 39] the figure was 0.35 µM; with `CC[C@H](N)C(=O)NCCCC#Cc1ccc(OC)cc1` [Compound 40], 0.214 µM.
With `CC[C@H](N)C(=O)NCCCC#Cc1cccc2ccccc12` [Compound 41] the figure was 2.53 µM.
In the case of `CC[C@H](N)C(=O)NCCCC#Cc1c(C)cccc1C` [Compound 49] it was 3.28 µM; in that of `CC[C@H](N)C(=O)NCCCC#Cc1ccc2c(c1)OCO2` [Compound 51], 15 µM; in that of `CC[C@H](N)C(=O)NCCCC#Cc1c(C)cc(C)cc1C` [Compound 55], 9.5 µM.
Consider `CC[C@H](N)C(=O)NCCCC#Cc1ccc(S(C)(=O)=O)cc1` [Compound 56, (S)-2-amino-N-(5-(4-(methylsulfonyl)phenyl)pent-4-ynyl)butanamide], for which the IC50 stood at 18 µM.
Take `CC[C@H](N)C(=O)NCCCC#Cc1ccc(OC)c(OC)c1` [Compound 57]: the IC50 came out at 17 µM.
In the case of `CC[C@H](N)C(=O)NCCCC#Cc1ccc(C(F)(F)F)cc1` [Compound 58] it was 11 µM.
On to `CC[C@H](N)C(=O)NCCCC#Cc1cc(OC)cc(OC)c1` [Compound 59], for which the IC50 is 12 µM.
With `CC[C@H](N)C(=O)NCCCC#Cc1ccc2sccc2c1` [Compound 60] the figure was 6 µM; with `CC[C@H](N)C(=O)NCCCC#Cc1ccccc1-c1ccccc1` [Compound 61], 6.8 µM; with `N[C@@H](Cc1cccs1)C(=O)NCCCC#Cc1cccc(OC2CCNCC2)c1` [Compound 63, (S)-2-amino-N-(5-(3-(piperidin-4-yloxy)phenyl)pent-4-ynyl)-3-(thiophen-2-yl)propanamide], 0.15 µM.
Consider `CC[C@@H](N)C(=O)NCCCC#Cc1cccc(OC2CCNCC2)c1` [Compound 71], for which the IC50 is more than 100 µM.
For the compound `CC[C@H](N)C(=O)NCCCC#Cc1ccc2ccccc2c1` [Compound 73], the IC50 was determined as 15 µM.
With `CC[C@H](N)C(=O)NCCCC#Cc1ccccc1C(F)(F)F` [Compound 74] the figure was 26 µM; with `CC[C@H](N)C(=O)NCCCC#Cc1ccccc1C1CCCCC1` [Compound 75], 39 µM; with `CC[C@H](N)C(=O)NCCCC#Cc1c(C)c(C)cc(C)c1C` [Compound 76], 14 µM.
With `CC[C@H](N)C(=O)NCCCC#Cc1cc(C)ccc1C` [Compound 77] the figure was 33 µM.
With `CC[C@H](N)C(=O)NCCCC#Cc1cccc(O[C@@H]2CCCNC2)c1` [Compound 78, (S)-2-amino-N-(5-(3-((R)-piperidin-3-yloxy)phenyl)pent-4-ynyl)butanamide] the figure was 3.9 µM.
Turning to `C#CC[C@H](N)C(=O)NCCCC#Cc1cccc(O[C@@H]2CCCNC2)c1` [Compound 79, (S)-2-amino-N-(5-(3-((R)-piperidin-3-yloxy)phenyl)pent-4-ynyl)pent-4-ynamide], the IC50 was 2.9 µM.
In the case of `CC[C@H](N)C(=O)NCCCC#Cc1cccc(O[C@H]2CCCNC2)c1` [Compound 80, (S)-2-amino-N-(5-(3-((S)-piperidin-3-yloxy)phenyl)pent-4-ynyl)butanamide] it was 2.3 µM; in that of `CC[C@H](N)C(=O)NCCCC#Cc1ccc(-c2ccccc2)cc1` [Compound 81], 5.6 µM.
With `CC[C@H](N)C(=O)NCCCC#Cc1cccc2cnccc12` [Compound 82] the figure was 17 µM.
In the case of `CC[C@H](N)C(=O)NCCCC#Cc1ccc(C)c2ccccc12` [Compound 83] it was 8.5 µM; in that of `CC[C@H](N)C(=O)NCCCC#Cc1ccc(F)c2ccccc12` [Compound 84], 7.2 µM; in that of `C#CC[C@H](N)C(=O)NCCCC#Cc1cccc(O[C@H]2CCCNC2)c1` [Compound 85, (S)-2-amino-N-(5-(3-((S)-piperidin-3-yloxy)phenyl)pent-4-ynyl)pent-4-ynamide], 1.2 µM.
`CC[C@H](N)C(=O)NCCCC#Cc1ccc(OCc2ccccc2)cc1` [Compound 86]: the IC50 was 2.4 µM.
For the compound `CC[C@H](N)C(=O)NCCCC#Cc1c(OC)ccc2ccccc12` [Compound 87], the 50% inhibitory concentration (IC50) is 13 µM.
With `CC[C@H](N)C(=O)NCCCC#Cc1cncc2ccccc12` [Compound 89] the figure was 7.9 µM.
